Literature values in patent US7790738B2, “Methods of treating and preventing AIDS using of COX-2 inhibitors” (Lauras AS, priority 2000, dated 2010).
pIC50: −log10 of the molar value.

Legend:
COX-2 = biological target: T1, COX-2 (Cavia porcellus, UniProt P70682); settings: guinea pig macrophage model; Engelhart et al. 1995; cited from earlier work
T1 construct: NSAID's in guinea pig macrophage model; endogenous in cells; host or cells: guinea pig macrophages
T1 sequence (P70682 18-604): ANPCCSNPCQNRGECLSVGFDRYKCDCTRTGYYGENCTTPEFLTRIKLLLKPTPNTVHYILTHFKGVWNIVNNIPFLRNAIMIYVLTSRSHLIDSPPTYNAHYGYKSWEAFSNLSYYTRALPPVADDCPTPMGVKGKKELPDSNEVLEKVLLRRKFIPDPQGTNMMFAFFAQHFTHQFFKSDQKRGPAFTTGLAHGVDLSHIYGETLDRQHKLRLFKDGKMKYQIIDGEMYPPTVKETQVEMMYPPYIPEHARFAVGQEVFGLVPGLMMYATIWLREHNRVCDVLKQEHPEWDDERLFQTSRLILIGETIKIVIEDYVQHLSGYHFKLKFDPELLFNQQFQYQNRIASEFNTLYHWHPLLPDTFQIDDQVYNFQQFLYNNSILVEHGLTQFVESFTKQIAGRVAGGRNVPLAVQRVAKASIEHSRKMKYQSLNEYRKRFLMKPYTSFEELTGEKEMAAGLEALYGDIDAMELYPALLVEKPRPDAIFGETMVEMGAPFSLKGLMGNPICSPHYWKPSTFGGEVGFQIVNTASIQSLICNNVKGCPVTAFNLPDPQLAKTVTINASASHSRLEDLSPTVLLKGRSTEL

COX-1 = COX-1 (Cavia porcellus, UniProt H0V9X9); settings: read-out: COX-1 IC50; guinea pig macrophage model; Engelhart et al. 1995; cited from earlier work
Sequence of COX-1 (H0V9X9 entry or part of it): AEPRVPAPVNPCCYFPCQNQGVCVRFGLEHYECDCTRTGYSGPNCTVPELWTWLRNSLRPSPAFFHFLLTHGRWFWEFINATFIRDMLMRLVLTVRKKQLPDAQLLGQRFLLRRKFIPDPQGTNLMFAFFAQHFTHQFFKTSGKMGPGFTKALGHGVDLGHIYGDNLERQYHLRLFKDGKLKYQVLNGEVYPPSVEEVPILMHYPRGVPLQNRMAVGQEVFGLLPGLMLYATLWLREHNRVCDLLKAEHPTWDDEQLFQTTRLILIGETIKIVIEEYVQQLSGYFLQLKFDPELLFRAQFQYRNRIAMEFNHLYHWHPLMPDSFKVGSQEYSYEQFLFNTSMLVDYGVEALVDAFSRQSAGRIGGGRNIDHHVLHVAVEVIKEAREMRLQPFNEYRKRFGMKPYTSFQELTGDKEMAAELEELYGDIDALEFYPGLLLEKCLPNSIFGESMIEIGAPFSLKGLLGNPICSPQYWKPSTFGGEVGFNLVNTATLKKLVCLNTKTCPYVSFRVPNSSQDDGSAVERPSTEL

In the case of `CN1C(C(=O)Nc2ccccn2)=C(O)c2sccc2S1(=O)=O` [Tenoxicam], the pIC50 (COX-2) is given as 6.49 and the pIC50 (COX-1) is given as 6.70.
